The values below come from PMC6677754, “In silico design and optimization of selective membranolytic anticancer peptides” (Scientific Reports, 2019).

Peptide text beside a SMILES is read from it.

Data set [1] deals with A549 lung adenocarcinoma cell line. Put plainly: Cell viability assay (MTT). The format is cell-based, human. The note with it: Table S2; MTT, 24 h; mean ± sd; N = 2 independent measurements with six technical replicates each (Figs S6-S8); read-out: A549 EC50 /µM. The gist of the method: (§1)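 Viability by MTT: 10^4 cells/well exposed 24 h to 2-fold peptide dilutions from 100 μM in DMEM, then 1 h with 0.5 mg mL−1 MTT; absorbance at 540 nm relative to peptide-free medium as 100% survival. EC50 from a 3-parameter log-logistic fit.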

Data set [2] concerns MCF7 breast adenocarcinoma cell line. Put plainly: Cell viability assay (MTT). The format is cell-based, human. The note with it: Table S2, 24 h, mean ± sd, N = 2 independent measurements with six technical replicates each (Figs S6-S8). In a few lines:
as §1

Data set [3] relates to human erythrocytes. The data set can be described thus: Hemolysis assay. The format is cell-based. The note with it: red cells of human, 1 h. The gist of the method:
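Washed human erythrocytes (5% v/v in PBS) were mixed with peptide plated as a 200–6.25 μM series, in triplicate, for 1 h at 37 °C. Released haemoglobin in the supernatant was read at 540 nm, scaled to 0.1% Triton X-100 (100%) and PBS (0%). HC50 came from a 3-parameter log-logistic fit.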

Data set [4] concerns noncancer HDMEC primary cells (human dermal microvascular endothelial cells). Put plainly: Cell viability assay (MTT). The format is cell-based. The note with it: Table S2; noncancer primary cells; MTT, 24 h; mean ± sd; N = 2 independent measurements with six technical replicates each (Figs S6-S8). The gist of the method:
as §1

Regarding `CC[C@H](C)[C@H](NC(=O)[C@H](CC(C)C)NC(=O)[C@@H](N)CCCNC(=N)N)C(=O)N[C@@H](CCCCN)C(=O)N[C@@H](CCCNC(=N)N)C(=O)N[C@H](C(=O)N[C@@H](CCCCN)C(=O)N[C@H](C(=O)N[C@@H](Cc1c[nH]c2ccccc12)C(=O)N[C@@H](Cc1ccc(O)cc1)C(=O)N[C@@H](CCCNC(=N)N)C(=O)N[C@@H](CCCCN)C(=O)N[C@@H](C)C(=O)N[C@@H](Cc1c[nH]c2ccccc12)C(=O)N[C@@H](CCCCN)C(=O)N[C@H](C(=O)N[C@H](C(=O)NCC(=O)N[C@@H](CCCCN)C(=O)N[C@@H](Cc1ccccc1)C(N)=O)C(C)C)C(C)C)[C@@H](C)O)[C@@H](C)CC` [Off2.7] (H-RLIKRIKTWYRKAWKVVGKF-NH2), the EC50 in data set [1] is 15 ± 1 µM; in data set [2], 11.2 ± 0.7 µM; in data set [4], 23 ± 5 µM. In addition, the “Eryhtr. HC50 /µM” value in data set [3] is greater than 200 µM.
The like results for `CC[C@H](C)[C@H](NC(=O)[C@@H](NC(=O)[C@H](Cc1c[nH]cn1)NC(=O)[C@H](Cc1c[nH]c2ccccc12)NC(=O)[C@H](C)NC(=O)[C@H](CCCNC(=N)N)NC(=O)[C@H](CCC(=O)O)NC(=O)[C@H](Cc1ccc(O)cc1)NC(=O)[C@H](Cc1ccc(O)cc1)NC(=O)[C@@H](NC(=O)[C@H](Cc1c[nH]cn1)NC(=O)[C@H](CC(C)C)NC(=O)[C@H](Cc1c[nH]cn1)NC(=O)[C@H](CCCCN)NC(=O)[C@H](CC(C)C)NC(=O)[C@H](Cc1ccccc1)NC(=O)[C@@H](N)CCCNC(=N)N)[C@@H](C)O)C(C)C)C(=O)NCC(=O)N[C@@H](Cc1c[nH]cn1)C(=O)N[C@@H](CC(C)C)C(N)=O` [Off2.8] (H-RFLKHLHTYYERAWHVIGHL-NH2) were, in that order, greater than 100 µM, greater than 100 µM, 2 ± 2 µM and greater than 200 µM.
For `CC[C@H](C)[C@H](NC(=O)[C@H](CC(C)C)NC(=O)[C@@H](N)Cc1c[nH]cn1)C(=O)N[C@@H](Cc1c[nH]cn1)C(=O)N[C@@H](CCCNC(=N)N)C(=O)N[C@@H](CC(C)C)C(=O)N[C@@H](Cc1c[nH]cn1)C(=O)N[C@H](C(=O)N[C@@H](Cc1ccc(O)cc1)C(=O)N[C@@H](Cc1c[nH]c2ccccc12)C(=O)N[C@@H](Cc1c[nH]cn1)C(=O)N[C@@H](CCCCN)C(=O)N1CCC[C@H]1C(=O)N[C@@H](Cc1c[nH]c2ccccc12)C(=O)N[C@@H](Cc1c[nH]cn1)C(=O)N[C@@H](Cc1ccc(O)cc1)C(=O)N[C@@H](CC(C)C)C(=O)NCC(=O)N[C@@H](CCCCN)C(=O)N[C@@H](CC(C)C)C(N)=O)[C@@H](C)O` [Off2.9] (H-HLIHRLHTYWHKPWHYLGKL-NH2), the EC50 is greater than 100 µM in data set [1], greater than 100 µM in data set [2] and 135 ± 2 µM in data set [4]. Also, the “Eryhtr. HC50 /µM” value in data set [3] is greater than 200 µM.
As to `CC[C@H](C)[C@H](NC(=O)[C@H](CCCCN)NC(=O)[C@@H]1CCCN1C(=O)[C@H](Cc1c[nH]c2ccccc12)NC(=O)[C@@H](NC(=O)[C@H](Cc1c[nH]cn1)NC(=O)[C@H](Cc1c[nH]c2ccccc12)NC(=O)[C@H](C)NC(=O)[C@H](CCCCN)NC(=O)[C@H](CCCCN)NC(=O)[C@@H](NC(=O)[C@H](Cc1c[nH]c2ccccc12)NC(=O)[C@@H](NC(=O)[C@H](Cc1c[nH]cn1)NC(=O)[C@H](CC(C)C)NC(=O)[C@H](CCC(N)=O)NC(=O)[C@H](CCCNC(=N)N)NC(=O)[C@@H](NC(=O)[C@H](CCCNC(=N)N)NC(=O)[C@@H](N)CCC(N)=O)[C@@H](C)CC)[C@@H](C)O)[C@@H](C)CC)[C@@H](C)CC)C(N)=O` [Off2.10] (H-QRIRQLHTWIKKAWHIWPKI-NH2), the values for the EC50 in data set [1], in data set [2] and in data set [4] were 40 ± 2 µM, 28.6 ± 0.1 µM and 39.7 ± 0.3 µM, respectively. The “Eryhtr. HC50 /µM” value in data set [3] is reported as greater than 200 µM.
The corresponding values for `CC[C@H](C)[C@H](NC(=O)[C@H](CCCCN)NC(=O)CNC(=O)[C@@H](NC(=O)[C@H](Cc1ccc(O)cc1)NC(=O)[C@H](Cc1c[nH]cn1)NC(=O)[C@H](Cc1c[nH]c2ccccc12)NC(=O)[C@@H](NC(=O)[C@H](CCCCN)NC(=O)[C@H](CCCCN)NC(=O)[C@H](CC(C)C)NC(=O)[C@@H](NC(=O)[C@H](Cc1c[nH]cn1)NC(=O)[C@H](CCCNC(=N)N)NC(=O)[C@H](Cc1ccccc1)NC(=O)[C@H](CCCCN)NC(=O)[C@H](CCCCN)NC(=O)[C@H](Cc1ccc(O)cc1)NC(=O)[C@H](CC(C)C)NC(=O)[C@@H](N)CCCCN)[C@@H](C)CC)C(C)C)C(C)C)C(N)=O` [Off3] (H-KLYKKFRHILKKVWHYVGKI-NH2) are 14 ± 3 µM, 10 ± 1 µM, 10 ± 3 µM and 29 ± 3 µM.
In the case of `CC[C@H](C)[C@H](NC(=O)[C@H](CC(C)C)NC(=O)[C@H](CCCCN)NC(=O)[C@H](Cc1ccccc1)NC(=O)[C@@H](NC(=O)[C@H](CCCCN)NC(=O)[C@H](CCCCN)NC(=O)[C@H](Cc1ccccc1)NC(=O)[C@H](Cc1c[nH]c2ccccc12)NC(=O)[C@@H](NC(=O)[C@H](CCCCN)NC(=O)[C@H](CC(C)C)NC(=O)[C@H](Cc1c[nH]cn1)NC(=O)[C@H](CCCNC(=N)N)NC(=O)[C@@H](NC(=O)[C@H](Cc1ccc(O)cc1)NC(=O)[C@@H](N)CCCCN)[C@@H](C)CC)[C@@H](C)O)C(C)C)C(=O)NCC(=O)N[C@@H](CCC(=O)O)C(=O)N[C@H](C(N)=O)C(C)C` [Off4] (H-KYIRHLKTWFKKVFKLIGEV-NH2), the EC50 in data set [1] was found to be 15 ± 0.1 µM; in data set [2], 11 ± 2 µM; in data set [4], 7.1 ± 0.1 µM. Moreover, the “Eryhtr. HC50 /µM” value in data set [3] is given as 20 ± 3 µM.
The like results for `CC[C@H](C)[C@H](NC(=O)[C@H](CCCCN)NC(=O)[C@H](CCCCN)NC(=O)[C@H](CC(C)C)NC(=O)[C@H](Cc1ccccc1)NC(=O)[C@H](CC(=O)O)NC(=O)[C@H](CCCCN)NC(=O)[C@H](Cc1ccccc1)NC(=O)[C@H](CCCCN)NC(=O)[C@H](CCCCN)NC(=O)[C@H](Cc1ccccc1)NC(=O)[C@@H](NC(=O)[C@@H](N)CCCCN)[C@@H](C)CC)C(=O)N[C@@H](Cc1ccccc1)C(=O)N[C@@H](CCC(N)=O)C(=O)N[C@@H](Cc1ccc(O)cc1)C(=O)N[C@@H](CC(C)C)C(=O)NCC(=O)N[C@@H](CCCCN)C(=O)N[C@H](C(N)=O)C(C)C` [Off5] (H-KIFKKFKDFLKKIFQYLGKV-NH2) were, in that order, 17.4 ± 0.1 µM, 12.4 ± 0.4 µM, 10.1 ± 0.2 µM and 15 ± 2 µM.
On to `CC[C@H](C)[C@H](NC(=O)[C@H](CCCNC(=N)N)NC(=O)[C@H](Cc1ccccc1)NC(=O)[C@H](CC(C)C)NC(=O)[C@H](CCCCN)NC(=O)[C@H](CCCCN)NC(=O)[C@H](Cc1c[nH]c2ccccc12)NC(=O)[C@H](Cc1ccc(O)cc1)NC(=O)[C@@H](NC(=O)[C@H](CCCCN)NC(=O)[C@@H](NC(=O)[C@H](CCCCN)NC(=O)[C@H](CCCCN)NC(=O)[C@H](Cc1ccccc1)NC(=O)[C@@H](NC(=O)[C@@H](N)Cc1c[nH]cn1)[C@@H](C)CC)C(C)C)[C@@H](C)O)C(=O)N[C@@H](CC(C)C)C(=O)NCC(=O)N[C@@H](CCCNC(=N)N)C(=O)N[C@@H](Cc1ccccc1)C(N)=O` [Off6] (H-HIFKKVKTYWKKLFRILGRF-NH2), for which the EC50 came out at 18 ± 2 µM in data set [1], 12 ± 3 µM in data set [2] and 5 ± 0.7 µM in data set [4]. Further, in data set [3], the “Eryhtr. HC50 /µM” value is reported as 16 ± 2 µM.
